# Results taken from patent publication US6287840A (Axys Pharmaceuticals, Inc., priority 1999, dated 2001).
# Like-named read-outs stand apart in the source and are kept apart here.
# What was measured:
# [1] = tested on: chymotrypsin; experiment: Selectivity versus serine proteases: chymotrypsin; assay type: biochemical; details: 100 μM
# [2] = Stability of selected inhibitors toward glutathione (Ellmans reagent); assay type: physicochemical; details: for reaction with GSH: after 24 hours, pH=6.2, 15% DMF, 20° C.
# Description: The inhibitors (5 mM) were incubated with glutathione (GSH) (0.3 mM) in phosphate buffer (50 mM) at pH=6.2 containing 15% DMF at 20° C. Periodically, 50 μL samples were added to 1 mL of buffer and treated with 10 μL of 30 mM Ellmans reagent and the absorbance measured at 412 nm.
# [3] = biological target: T1, Cathepsin L from rat liver (Rattus norvegicus, UniProt P07154); experiment: Inhibition of cathepsin L, Z-Phe-Arg-AMC fluorescence progress curves; assay type: biochemical; details: for Ki: corrected for substrate; for k/KI (kirr/KI): values without asterisk; for k/KI (kirr/KI) / kobs /[I]* (approximate second-order inactivation constant): 25° C., pH 6.2; for kobs /[I]* (approximate second-order inactivation constant): values marked *
# T1 construct: Cathepsin L from rat liver; from tissue; host or cells: rat liver
# How it was run: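 Progress curves of AMC release (380/460 nm) over at least 3 inactivation half-times were fitted to kobs, reported as kobs/[I] or, via 1/[I] vs 1/kobs, kirr, KI (substrate-corrected) and kirr/KI.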
# [4] = tested on: human malarial parasite Plasmodium falciparum; experiment: In vitro protease activity of malarial parasite, substrate Z-Phe-Arg-AMC; assay type: biochemical; details: read-out: P. falciparum IC50 (human)
# Text: (§1) The following table summarizes the comparative IC50 values for selected cysteine protease inhibitors against the human malarial parasite Plasmodium falciparum and the mouse malarial parasite Plasmodium vinckei. The substrate used to measure in vitro protease activity was Z-Phe-Arg-AMC.
# [5] = tested on: mouse malarial parasite Plasmodium vinckei; experiment: as above; assay type: biochemical; details: read-out: P. vinckei IC50 (murine)
# Text: as §1
# [6] = biological target: T2, Cathepsin B from human placenta (Homo sapiens, UniProt P07858); experiment: Inhibition of cathepsin B, Z-Arg-Arg-AMC fluorescence progress curves; assay type: biochemical; details: for Ki: corrected for substrate; for k/KI (kirr/KI): values without asterisk
# T2 construct: Cathepsin B from human placenta, obtained from Sigma; purchased Sigma; host or cells: human placenta (tissue)
# How it was run: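 Human placental enzyme (~10 nM) in 50 mM phosphate pH 6.2 with 2.5 mM DTT and 2.5 mM EDTA, 50 μM Z-Arg-Arg-AMC, inhibitors 30-0.001 μM, 25° C. AMC fluorescence (ex 380/em 460 nm) progress curves fitted for kobs; kobs/[I] reported, with kirr, KI and kirr/KI substrate-corrected for selected compounds.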
# [7] = biological target: T3, Cloned cathepsin S (Homo sapiens, UniProt P25774); experiment: Inhibition of cathepsin S, Z-Val-Val-Arg-AMC fluorescence progress curves; assay type: biochemical; details: for Ki: corrected for substrate; for k/KI (kirr/KI): values without asterisk; for k/KI (kirr/KI) / kobs /[I]* (approximate second-order inactivation constant): 25° C., pH 6.5; for kobs /[I]* (approximate second-order inactivation constant): values marked *
# T3 construct: made in house
# How it was run: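 Progress curves at 25 °C in 100 mM phosphate pH 6.5, 2.5 mM DTT, 2.5 mM EDTA, 0.01% Triton, enzyme <1 nM, 10 μM substrate, inhibitors 30-0.001 μM; AMC fluorescence ex 380/em 460 nm. kobs from nonlinear fits gave kobs/[I]; selected compounds yielded kirr, KI (substrate-corrected), kirr/KI.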
# [8] = biological target: cruzain, from T. cruzi (Trypanosoma cruzi, UniProt P25779); experiment: Inhibition of cruzain, as for cathepsin L; assay type: biochemical; details: for kobs /[I]* (approximate second-order inactivation constant): values marked *
# How it was run: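 Run as for cathepsin L with 1 nM cruzain in 50 mM phosphate pH […], 2.5 mM DTT, 2.5 mM EDTA, 5 μM Z-Phe-Arg-AMC, at 25 °C, inhibitors 30-0.001 μM; fluorescence (ex 380/em 460 nm) followed continuously. kobs fitted from progress curves and kobs/[I] reported; selected compounds gave kirr, KI, kirr/KI, with KI corrected by (1+[S]/Km).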
# [9] = tested on: U87MG; experiment: Matrigel barrier migration assay, U87MG; assay type: cell-based, human; parameters: dose or concentration left out as unconfirmed
# Description: (§2) Two permanent human glioma cell lines (U87MG and U251MGn) and a well characterized low passage primary culture derived from a CB-positive glioblastoma (HF66) were used to assess the migratory behavior in the Matrigel barrier migration assay in the presence of graded concentrations of four compounds.
# (§3) Using the Matrigel assay, Mu-Leu-HphVSPh, Mu-Tyr-HphVSPh, Mu-Phe-HphVSPh, and Mu-Tyr(I2)-HphVSPh (all at 10 mM) inhibited U251MGn by 67, 56, 29, & 20% respectively, while the U87MG cells were inhibited 53, 75, 63, & 56% respectively. The primary culture HF66 cells were inhibited only 10% by these compounds at the same concentration.
# [10] = tested on: U251MGn; experiment: Matrigel barrier migration assay, U251MGn; assay type: cell-based, human; parameters: dose or concentration left out as unconfirmed
# Description: as §2, §3
# [11] = tested on: T. cruzi; experiment: T. cruzi infected irradiated J774 cells; assay type: cell-based; parameters: dose or concentration left out as unconfirmed; details: thereafter without inhibitor; compounds listed in decreasing order of effectiveness
# Description: Irradiated J774 cells were infected with T. cruzi and simultaneously treated with […] of peptidyl vinyl derivatives for 5 days; thereafter without inhibitor. The following compounds were effective in decreasing order: Mu-Phe-ArgVSPh, Boc-Tyr(I2)-HphVSPh, Mu-Phe-VaIVSPh, Boc-Tic-HphVSPh, Mu-Phe-Ser(OBzl)VSPh, Mu-Leu-HphVSPh, Mu-Tyr(I2)-HphVSPh, Mu-Phe-LysVSPh, Mu-Tic-HphVSPh.
# [12] = tested on: Trypanosoma cruzi amastigote infected macrophages; experiment: In vitro antiprotozoal activity, Trypanosoma cruzi; assay type: cell-based
# Description: (§4) In this table, the in vitro antiprotozoal activities of the indicated compounds were measured as percentage inhibition of Leishmania donovani amastigote infecteda mouse peritoneal macrophages, Trypanosoma cruzi amastigote infected macrophages, and Trypanosoma brucei extracellular bloodstream forms.
# [13] = tested on: Trypanosoma brucei extracellular bloodstream forms; experiment: In vitro antiprotozoal activity, Trypanosoma brucei; assay type: cell-based
# Description: as §4
# [14] = tested on: calpain; experiment: Inhibition (inactivation) of calpain, Suc-Leu-Tyr-AMC; assay type: biochemical; details: values marked * (or %); pH 7.5, 5 mM CaCl2, 25° C.
# Description: The inhibitors were tested against calpain at 1 or 2% as for the other enzymes. The reaction conditions were 50 mM Tris, pH 7.5, 5 mM CaCl2, 2.5 mM DTT, assayed at 25° C. The substrate was 100 μM Suc-Leu-Tyr-AMC.
# [15] = tested on: Leishmania donovani amastigote infected mouse peritoneal macrophages; experiment: In vitro antiprotozoal activity, Leishmania donovani; assay type: cell-based; parameters: key to percentage inhibition, L. donovani: the term "T" indicates the molecule to have displayed cytotoxicity
# Description: as §4
# T3 sequence (P25774 115-331): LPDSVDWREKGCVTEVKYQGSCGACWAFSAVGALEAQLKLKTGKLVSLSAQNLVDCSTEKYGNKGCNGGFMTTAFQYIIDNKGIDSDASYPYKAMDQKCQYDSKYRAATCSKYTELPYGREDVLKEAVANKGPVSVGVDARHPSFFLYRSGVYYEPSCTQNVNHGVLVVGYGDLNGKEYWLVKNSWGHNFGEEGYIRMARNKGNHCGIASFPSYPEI
# Sequence of cruzain, from T. cruzi (P25779 123-337 limits assumed): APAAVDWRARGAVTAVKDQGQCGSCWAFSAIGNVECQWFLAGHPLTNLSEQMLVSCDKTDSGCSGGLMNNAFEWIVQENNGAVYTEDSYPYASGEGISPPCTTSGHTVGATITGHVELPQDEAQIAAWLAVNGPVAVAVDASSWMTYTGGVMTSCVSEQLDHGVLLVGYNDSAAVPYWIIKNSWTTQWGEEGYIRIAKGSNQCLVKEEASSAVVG
# T1 sequence (P07154 114-288 limits assumed): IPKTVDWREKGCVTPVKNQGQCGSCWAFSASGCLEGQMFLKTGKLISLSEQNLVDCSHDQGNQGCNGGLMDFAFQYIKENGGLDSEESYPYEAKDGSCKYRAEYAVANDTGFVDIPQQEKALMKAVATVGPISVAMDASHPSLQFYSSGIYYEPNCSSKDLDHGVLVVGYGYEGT
# T1 sequence (P07154 291-334 limits assumed): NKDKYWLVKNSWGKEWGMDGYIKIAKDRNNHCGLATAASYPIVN
compound,measurement,setting,value
C[C@H](NC(=O)OC(C)(C)C)C(=O)N[C@H](/C=C/S(=O)(=O)c1ccccc1)Cc1ccccc1 [Boc-Ala-PheVSPh],binding to chymotrypsin,[1]; 100 mM TRIS buffer at pH=7.5,did not bind
same,inactivation of chymotrypsin,"[1]; pH=7.5, after 1 hour",nor did it inactivate
"Br.CCOC(=O)/C=C/[C@H](CCCNC(=N)N)NC(=O)[C@H](Cc1ccccc1)NC(=O)N1CCOCC1 [Mu-Phe-ArgVEOEt.HBr, ethyl (S)-(E)-7-guanidino-4-(4-morpholinecarbonylphenylalanyl)amino-2-heptenoatehydrobromide]",second order rate constant for the loss of GSH,"[2]; inhibitor 5 mM, GSH 0.3 mM, pH=6.2, 20° C.",0.0053 M⁻¹ s⁻¹
same,times more reactive with GSH,[2]; relative to Mu-Phe-LysVSPh,10 times
same,kirr,[3],0.18 s⁻¹
same,Ki,[3],3.1 µM
same,k/KI (kirr/KI),[3],"56,900 M^-1 sec^-1"
same,IC50,[4]; cells printed in nM,300 nM
same,IC50,[5]; cells printed in nM,200 nM
same,kirr,[6],0.16 s⁻¹
same,Ki,[6],19 µM
same,k/KI (kirr/KI),"[6]; 25° C., pH 6.2",8200 M⁻¹ s⁻¹
"CCOP(=O)(C/C=C/[C@H](CCc1ccccc1)NC(=O)[C@H](Cc1ccccc1)NC(=O)N1CCOCC1)OCC [Mu-Phe-HphVPEt, diethyl (S)-(E)-4-(4-morpholinecarbonylphenylalanyl)amino-6-phenyl-2-hexenephosphonate]",reaction with GSH,"[2]; inhibitor 5 mM, GSH 0.3 mM",no measurable reaction
same,kirr,[3],0.16 s⁻¹
same,Ki,[3],39 µM
same,k/KI (kirr/KI),[3],4100 M⁻¹ s⁻¹
same,kirr,[7],0.40 s⁻¹
same,Ki,[7],36 µM
same,k/KI (kirr/KI),[7],"11,200 M^-1 sec^-1"
"CS(=O)(=O)/C=C/[C@H](CCc1ccccc1)NC(=O)[C@H](Cc1ccccc1)NC(=O)N1CCOCC1 [Mu-Phe-HphVSMe, (S)-(E)-5-(4-morpholinecarbonylphenylalanyl)amino-7-phenyl-2-thia-3-heptene 2,2-dioxide]",reaction with GSH,"[2]; inhibitor 5 mM, GSH 0.3 mM",no measurable reaction
same,kobs /[I]* (approximate second-order inactivation constant),[3],8700 M⁻¹ s⁻¹
same,IC50,[4]; cells printed in μM,1000 nM
same,IC50,[5]; cells printed in μM,1000 nM
same,kirr,[7],0.10 s⁻¹
same,Ki,[7],0.088 µM
same,kobs /[I]* (approximate second-order inactivation constant),[8],"22,000 M^-1 sec^-1"
same,kirr,[6],0.13 s⁻¹
same,Ki,[6],26 µM
same,k/KI (kirr/KI),"[6]; 25° C., pH 6.2",5100 M⁻¹ s⁻¹
"O=C(N[C@H](/C=C/S(=O)(=O)c1ccccc1)CCc1ccccc1)C(Cc1cc(I)c(O)c(I)c1)NC(=O)N1CCOCC1 (stereo partly drawn) [Mu-Tyr(I2)-HphVSPh, (S)-(E)-3-[4-morpholinecarbonyl-(3,5-diiodotyrosyl)]-amino-5-phenyl-1-phenylsulfonyl-1-pentene]",kobs /[I]* (approximate second-order inactivation constant),[3],"190,000 M^-1 sec^-1"
same,inhibition of U87MG migration,[9],56%
same,kobs /[I]* (approximate second-order inactivation constant),[7],"> 7,300,000 M^-1 sec^-1"
same,kobs /[I]* (approximate second-order inactivation constant),[8],"114,000 M^-1 sec^-1"
same,kirr,[6],0.18 s⁻¹
same,Ki,[6],4.7 µM
same,k/KI (kirr/KI),"[6]; 25° C., pH 6.2","39,200 M^-1 sec^-1"
same,inhibition of U251MGn migration,[10],20%
same,effectiveness against T. cruzi in J774 cells,[11],effective
(S)-(E)-3-(4-morpholinecarbonylphenylalanyl)amino-4-benzyloxy-1-phenylsulfonyl-1-butene [Mu-Phe-Ser(OBzl)VSPh],kirr,[3],0.20 s⁻¹
same,Ki,[3],4.6 µM
same,k/KI (kirr/KI),[3],"42,700 M^-1 sec^-1"
same,IC50,[4]; cells printed in μM,1000 nM
same,IC50,[5]; cells printed in nM,500 nM
same,"percentage inhibition, T. cruzi",[12]; 3 uM,5.2%
same,"percentage inhibition, T. cruzi",[12]; 10 uM,15.7%
same,"percentage inhibition, T. cruzi",[12]; 30 uM,15.1%
same,"percentage inhibition, T. cruzi",[12]; 90 uM,50.7%
same,kirr,[7],0.092 s⁻¹
same,Ki,[7],0.074 µM
same,k/KI (kirr/KI),[7],"1,240,000 M^-1 sec^-1"
same,"percentage inhibition, T. brucei",[13]; 1 uM,5.2%
same,"percentage inhibition, T. brucei",[13]; 3 uM,11.5%
same,"percentage inhibition, T. brucei",[13]; 10 uM,93.3%
same,"percentage inhibition, T. brucei",[13]; 30 uM,1.00%
same,"percentage inhibition, T. brucei",[13]; 90 uM,100%
same,kobs /[I]*,[14],< 50 M⁻¹ s⁻¹
same,k/KI (kirr/KI),[8]; values without asterisk,"12,800 M^-1 sec^-1"
same,kirr,[6],0.14 s⁻¹
same,Ki,[6],47 µM
same,k/KI (kirr/KI),"[6]; 25° C., pH 6.2",2900 M⁻¹ s⁻¹
same,"percentage inhibition, L. donovani",[15]; 3 uM,100%
same,"percentage inhibition, L. donovani",[15]; 10 uM,100%
same,"percentage inhibition, L. donovani",[15]; 30 uM,100%
same,"percentage inhibition, L. donovani",[15]; 90 uM,T
same,effectiveness against T. cruzi in J774 cells,[11],effective
(S)-(E)-3-(4-morpholinecarbonyltyrosyl)amino-5-phenyl-1-phenylsulfonyl-1-pentene [Mu-Tyr-HphVSPh],kobs /[I]* (approximate second-order inactivation constant),[3],"700,000 M^-1 sec^-1"
same,inhibition of U87MG migration,[9],75%
same,kobs /[I]* (approximate second-order inactivation constant),[7],"4,200,000 M^-1 sec^-1"
same,kobs /[I]* (approximate second-order inactivation constant),[8],"297,000 M^-1 sec^-1"
same,kobs /[I]* (approximate second-order inactivation constant),"[6]; values marked *, 25° C., pH 6.2","20,000 M^-1 sec^-1"
same,inhibition of U251MGn migration,[10],56%
